Data as given in patent US20160168126A1, “CHEMICAL COMPOUNDS” (SYNGENTA LIMITED, priority 2013, published 2016).

System: a variety of test species
Assay: Post-emergence herbicidal activity (glasshouse, sprayed 8 days after sowing, evaluated after 13 days)
Assay type: in vivo
Conditions: scale 0-5
Protocol: Seeds of a variety of test species were sown in standard soil in pots. After 8 days cultivation (post-emergence) under controlled conditions in a glasshouse (at 24/16° C., day/night; 14 hours light; 65% humidity), the plants were sprayed with an aqueous spray solution derived from the formulation of the technical active ingredient in acetone/water (50:50) solution containing 0.5% Tween 20 (polyoxyethelyene sorbitan monolaurate, CAS RN 9005-64-5). The test plants were then grown in a glasshouse under controlled conditions (at 24/16° C., day/night; 14 hours light; 65% humidity) and watered twice daily. After 13 days, the test was evaluated (5=total damage to plant; 0=no damage to plant).

| SMILES | Post-emergence herbicidal damage score, ABUTH (Abutilon theophrasti) (1000 g/ha) | Post-emergence herbicidal damage score, ALOMY (Alopecurus myosuroides) (1000 g/ha) | Post-emergence herbicidal damage score, AMARE (Amaranthus retroflexus) (1000 g/ha) | Post-emergence herbicidal damage score, ECHCG (Echinochloa crus-galli) (1000 g/ha) | Post-emergence herbicidal damage score, SETFA (Setaria faberi) (1000 g/ha) | Post-emergence herbicidal damage score, ZEAMX (Zea mays) (1000 g/ha) | Post-emergence herbicidal damage score, ABUTH (Abutilon theophrasti) (250 g/ha) | Post-emergence herbicidal damage score, ALOMY (Alopecurus myosuroides) (250 g/ha) | Post-emergence herbicidal damage score, AMARE (Amaranthus retroflexus) (250 g/ha) | Post-emergence herbicidal damage score, ECHCG (Echinochloa crus-galli) (250 g/ha) | Post-emergence herbicidal damage score, SETFA (Setaria faberi) (250 g/ha) | Post-emergence herbicidal damage score, ZEAMX (Zea mays) (250 g/ha) |
| --- | --- | --- | --- | --- | --- | --- | --- | --- | --- | --- | --- | --- |
| CC1=C(Cl)C(O)N(c2ccn(C)n2)C1=O (stereo not drawn) [Compound B31] | 0 | 1 | 3 | 1 | 1 | 1 |  |  |  |  |  |  |
| CC1=C(Cl)C(O)N(c2cc(Cc3ccccc3)n(C)n2)C1=O (stereo not drawn) [Compound B32] | 5 | 2 | 3 | 3 | 4 | 0 |  |  |  |  |  |  |
| CCn1nc(N2C(=O)C(C)=C(Cl)C2O)cc1C(F)(F)F (stereo not drawn) [Compound C1] | 3 | 3 | 5 | 4 | 0 | 1 |  |  |  |  |  |  |
| CCn1nc(N2C(=O)C(C)=C(Cl)C2O)cc1C(C)(C)C (stereo not drawn) [Compound C2] | 5 | 3 | 4 | 4 | 4 | 0 |  |  |  |  |  |  |
| CCn1nc(N2C(=O)C(C)=C(Cl)C2O)c2c1C(C)(C)CC2 (stereo not drawn) [Compound C3] | 5 | 4 | 5 | 5 | 5 | 1 |  |  |  |  |  |  |
| CC1=C(Cl)C(O)N(c2cc(C(F)(F)F)n(C(C)C)n2)C1=O (stereo not drawn) [Compound C4] | 0 | 0 | 1 | 1 | 1 | 1 |  |  |  |  |  |  |
| CC1=C(Cl)C(O)N(c2cc(C(F)(F)F)n(CC(F)(F)F)n2)C1=O (stereo not drawn) [Compound C5] | 2 | 0 | 1 | 0 | 0 | 3 |  |  |  |  |  |  |
| CC1=C(Cl)C(O)N(c2cc(C)n(C(F)F)n2)C1=O (stereo not drawn) [Compound C6] | 1 | 0 | 2 | 0 | 2 | 1 |  |  |  |  |  |  |
| CC1=C(Cl)C(O)N(c2cc(C#N)n(CC(F)(F)F)n2)C1=O (stereo not drawn) [Compound C7] | 3 | 0 | 0 | 0 | 1 | 0 |  |  |  |  |  |  |
| CC1=C(Cl)C(O)N(c2nn(CC(F)(F)F)c(C)c2C#N)C1=O (stereo not drawn) [Compound C8] | 0 | 0 | 1 | 0 | 0 | 0 |  |  |  |  |  |  |
| CC1=C(Cl)C(O)N(c2cc(C)n(C(F)(F)F)n2)C1=O (stereo not drawn) [Compound C9] | 1 | 0 | 1 | 1 | 0 | 1 |  |  |  |  |  |  |
| CC1=C(Cl)C(O)N(c2nn(C)c(C(C)(C)C)c2C#N)C1=O (stereo not drawn) [Compound D1] | 3 | 2 | 4 | 3 | 1 | 0 |  |  |  |  |  |  |
| CC1=C(Cl)C(O)N(c2nn(C)c(C(C)(C)C)c2Cl)C1=O (stereo not drawn) [Compound D2] | 3 | 1 | 0 | 2 | 2 | 0 |  |  |  |  |  |  |
| CC1=C(Cl)C(O)N(c2nn(C)c(C(C)(C)CCl)c2Cl)C1=O (stereo not drawn) [Compound D3] | 1 | 0 | 0 | 2 | 1 | 1 |  |  |  |  |  |  |
| CCCC1=C(C)C(O)N(c2nn(C)c(C(C)(C)C)c2C#N)C1=O (stereo not drawn) [Compound D4] | 4 | 3 | 2 | 2 | 4 | 0 |  |  |  |  |  |  |
| Cn1nc(N2C(=O)C(CCl)=C(Cl)C2O)cc1C(C)(C)C (stereo not drawn) [Compound E1] | 4 | 4 | 1 | 5 | 5 | 0 |  |  |  |  |  |  |
| CCCC1=C(Cl)C(O)N(c2cc(C(C)(C)C#N)n(C)n2)C1=O (stereo not drawn) [Compound E2] | 4 | 4 | 5 | 5 | 4 | 1 |  |  |  |  |  |  |
| CC1=C(Cl)C(OC(=O)OCC(C)C)N(c2cc(C(C)(C)C)n(C)n2)C1=O (stereo not drawn) [Compound F1] | 5 | 4 | 5 | 5 | 5 | 3 |  |  |  |  |  |  |
| CC1=C(Cl)C(OC(=O)Oc2ccccc2)N(c2cc(C(C)(C)C)n(C)n2)C1=O (stereo not drawn) [Compound F2] | 5 | 4 | 5 | 5 | 5 | 1 |  |  |  |  |  |  |
| COC1=C(Cl)C(OC(C)=O)N(c2cc(C(C)(C)C)n(C)n2)C1=O (stereo not drawn) [Compound F3, [1-(5-tert-butyl-1-methyl-pyrazol-3-yl)-3-chloro-4-methoxy-5-oxo-2H-pyrrol-2-yl] acetate] | 5 | 5 | 5 | 5 | 5 | 3 |  |  |  |  |  |  |
| CC1=C(Cl)C(O)N(c2cc3n(n2)CCC3(C)C)C1=O (stereo not drawn) [Compound G2] |  |  |  |  |  |  | 5 | 5 | 5 | 5 | 5 | 4 |
| CC1=C(Cl)C(O)N(c2cc3n(n2)CCCC3(C)C)C1=O (stereo not drawn) [Compound G4] | 5 | 5 | 5 | 5 | 5 | 2 |  |  |  |  |  |  |
| CC1=C(Cl)C(O)N(c2cc3n(n2)CCSC3(C)C)C1=O (stereo not drawn) [Compound G6] | 5 | 4 | 5 | 4 | 4 | 0 |  |  |  |  |  |  |
